How the values were obtained:
IB3-1 cells [1] = assay: Compound screening for calcium enhancers (Fura-2 fluorescence plate reader)
Description: Thus for the ECaT Ringers, we eliminated Na^+ from the solution and replaced it completely by N-methyl-D-glucamine (NMDG) to maintain the solution osmolality to favor Ca^2+ for entry through the P2X receptor. We were searching for compounds that activate the P2X receptor channel or other Ca^2+ entry channels, as well as compounds that bind to membrane or cellular proteins which are involved in intracellular Ca^2+ regulation.
Compounds were selected as potential hits if their change of fluorescence ratio fell within 3 SD of those obtained for zinc (ratio), and larger than that recorded for DMSO (ratio) +3SD. The average Z factor of all 25 plates is 0.6 for the 15 min detection. Hits were solely based on the change in the fluorescence ratio. Any compound that was highly auto-fluorescent was not considered further.
We further evaluated 37 hits manually using the Fluorescence Plate Reader system. […] Following this initial vetting process, the half-maximal effective concentration (EC50) was determined of each of the remaining 19 molecules. […] Compound Library: Library MSSP (Microsource Discovery Inc) was our source for compounds for the primary screening. The compounds were known bioactive compounds and natural products and their derivatives. The library contained 2,000 compounds on twenty-five 96-well plates, with 80 compounds tested per plate. In the master plates, each compound was suspended in DMSO at a concentration of 10 mM. A set of 96-well plates of the library in a concentration of 2 mM in DMSO was made prior to the screening.
Screening Procedure: The screening was performed by the Johns Hopkins University High Throughput Biology Center Chemcore. […] The fluorescence ratio was measured in ECaT Ringer's solution by a Tecan Safire Fluorescence Plate Reader. […] The fluorescence ratio was measured again immediately after adding the compounds. The final fluorescence detection was done 15 min after the second detection in order to find compounds which stimulate the sustained Ca^2+ increase.

Calu-3 cells [2] = assay: Short-circuit current measurement (Cl- secretion), Calu-3 monolayers; type: cell-based, human; settings: for effect of channel blocker on spiperone-induced sustained Cl- release / effect of channel blocker on spiperone-induced transient Cl-: amiloride present; for Cl- current (short circuit current): normal Ringer's, Na+ absorption blocked with amiloride
Method: (§1) An experiment was carried out to establish that the spiperone-induced increase of Ca^2+ would produce an increase in Cl^− transport relevant to CF, and that it would do so in CF relevant epithelial cells. Calu-3 and CFBE41o-cell monolayers were cultured on permeable filter support and “short circuit current” measurements were performed to evaluate the current produced by Cl^− in these cells.
(§2) Na^+ is a positively charged ion and its absorption would interfere with the short circuit measurement for Cl^− secretion. Therefore, in normal Ringer's solution, Na^+ absorption across the cell membrane was blocked with amiloride. Cell monolayers were then exposed to the two relevant compounds: niflumic acid (NFA), which is a non-selective CaCCs blocker or to CFTRinh-172, which is a specific CFTR blocker.
(§3) Calu-3 and CFBE41o-cells were cultured on Snapwell inserts until they formed a tight monolayer as monitored by measuring the transepithelial resistance. The bottom of the monolayer was taken out, mounted on the Ussing chamber and buffered by the testing solutions. The short-circuit current was measured by a VCC MC6 multichannel voltage/current clamp (Physiologic Instruments, San Diego, Calif.). Data were recorded and analyzed by Acquire and Analyze software.

IB3-1 cells [3] = assay: Fura-2 microscope calcium measurement in IB3-1 cells; type: cell-based, human; settings: for effect of preincubation on the spiperone-induced Ca2+ increase: inhibitor given before spiperone; for spiperone Ca2+ response after prior addition of the analog: analog added prior to spiperone; for increase of intracellular Ca2+ / Ca2+ release: spiperone analogs, solution not stated
Description: . A microscope-based fluorescence Ca^2+ measurement system was utilized in this study. First IB3-1 cells grown on a coverglass were bathed in the ECaT Ringer's which was used for the screen. […] In order to ascertain the origin of this sustained increase the experiment was repeated except with Ca^2+-free ECaT Ringer's solution, (See FIG. 8).
Using normal Ringers, a study was undertaken to determine whether the source of the increase in cytoplasmic Ca^2+ was indeed the endoplasmic reticulum (ER). As part of the normal Ca^2+ transit system across the ER, the Ca^2+-ATPase pumps Ca^2+ from the cytosol to the ER uphill against the concentration gradient. Other channels continue to cycle Ca^2+ from ER back to cytosol. Thapsigargin blocks the Ca^2+-ATPase, inhibiting the uphill uptake. […]
Phospholipase C (PLC) is an intracellular enzyme that participates in calcium signaling pathways. […]. There are two major molecules that activate PLC pathways to release Ca^2+ from the ER. One is the G-protein coupled receptors. The second is the protein tyrosine kinase […]. […]. […] (FIG. 12G is the summary data of genistein treatment.) Lavendustin A is another protein tyrosine kinase inhibitor. […].
(§4) Cells were seeded on the collagen-coated cover glass for 48 h. Cell Ca^2+ was measured with a dual excitation wavelength microscope system. Fura-2 fluorescence was excited at 340 nm and 380 nm with xenon light. Fluorescence was measured at 510 nm emission wavelength. Data was processed and analyzed using IPLab 4.0 software. Fluorescence data of each experiment were normalized to the individual basal fluorescence value ΔF/F0=(F−F0)/F0 to bring all the response curves to the same pretreatment starting point.

CFBE41o- cells [4] = assay: Short-circuit current measurement (Cl- secretion), CFBE41o- monolayers; type: cell-based, human; settings: for Cl- secretion (short circuit current): normal Ringer's, amiloride
Method: as §1, §2, §3

[5] = 24 weeks of treatment, phase III trial, inhaled; cited from earlier work
5-HT2 receptor = 5-HT2 receptor (Homo sapiens, UniProt P28223); settings: antagonists; cited from earlier work
dopamine D2 receptor = dopamine D2 receptor (Homo sapiens, UniProt P14416); settings: cited from earlier work
5-HT receptor = settings: canine tracheal epithelia, another study; cited from earlier work
Calu-3 cells [6] = assay: Fura-2 microscope calcium measurement in Calu-3 cells; type: cell-based, human; settings: Calu-3 non-CF; Ca2+-free Ringers
Method: as §4

CFBE41o- cells [7] = assay: Fura-2 microscope calcium measurement in CFBE41o- cells; type: cell-based, human; settings: CFBE41o- CF; Ca2+-free Ringers
Method: as §4

NHBE = assay: Fura-2 microscope calcium measurement in NHBE primary cells; type: cell-based, human; settings: NHBE primary culture; Ca2+-free Ringers
Method: as §4

[8] = test system: nasal epithelia of wild-type (C57B1/6) mice; assay: Mouse nasal potential difference, wild-type C57B1/6 mice; settings: after elimination of mucosal Cl-
Description: Animals: The studies conducted were approved by the Johns Hopkins University Animal Care and Use Committee. […] Nasal Potential Difference (NPD): All mice were anesthetized with an IP injection of a ketamine and xylazine mixture (100 mcg/10 mcg per gram of body weight). […] Briefly, a high impedance voltmeter (World Precision Instruments, Sarasota, Fla.) was connected by silver-chloride pellet electrodes to an exploring nasal bridge and a reference subcutaneous bridge. The nasal bridge, a single polyethylene tube (PE10, 0.28 mm ID, Clay-Adams, B D, Sparks, Md.) was pulled to one-half its original diameter and cut at a 45 degree angle. The tubing was marked and inserted 5 mm from the tip of the nare. A paper tape flag indicated position and orientation of the tip. The subcutaneous bridge was a 25 GA Butterfly® (Abbott, Chicago, Ill.) needle containing Ringer's solution inserted subcutaneously in the right abdominal wall. Each solution was warmed to 37° C. and perfused to the nare for at least 3 minutes at 5 micro liters per minute using a perfusion pump. Following the procedure, the oral cavity was gently suctioned of perfusate and the mice were recovered to their cages. Voltmeter data (mV) was recorded by a PowerLab A/D converter connected to a PC running Chart software at 20 samples per second (AD Instruments, Colorado Springs, Colo.). […]

[9] = test system: nasal epithelium of CFKO mice; assay: Mouse nasal potential difference, CF (double transgenic CFKO) mice
Description: In order to allow for later hyperpolarization from chloride secretion, their nasal epithelia were perfused with baseline Ringers with amiloride added to block the epithelial Na^+ channel. For the next perfusion, the Cl^− was removed by substituting Na^+ gluconate in the baseline Ringer's solution (FIG. 8), then removed Cl^− from the mucosa by perfusing the nare with that Ringer's.
Nasal Potential Difference (NPD): All mice were anesthetized with an IP injection of a ketamine and xylazine mixture (100 mcg/10 mcg per gram of body weight). […] Briefly, a high impedance voltmeter (World Precision Instruments, Sarasota, Fla.) was connected by silver-chloride pellet electrodes to an exploring nasal bridge and a reference subcutaneous bridge. The nasal bridge, a single polyethylene tube (PE10, 0.28 mm ID, Clay-Adams, B D, Sparks, Md.) was pulled to one-half its original diameter and cut at a 45 degree angle. The tubing was marked and inserted 5 mm from the tip of the nare. A paper tape flag indicated position and orientation of the tip. The subcutaneous bridge was a 25 GA Butterfly® (Abbott, Chicago, Ill.) needle containing Ringer's solution inserted subcutaneously in the right abdominal wall. Each solution was warmed to 37° C. and perfused to the nare for at least 3 minutes at 5 micro liters per minute using a perfusion pump. Following the procedure, the oral cavity was gently suctioned of perfusate and the mice were recovered to their cages. Voltmeter data (mV) was recorded by a PowerLab A/D converter connected to a PC running Chart software at 20 samples per second (AD Instruments, Colorado Springs, Colo.). A minimum of 400 data points (˜20 seconds) were used to calculate the mean voltage values.

Chain of dopamine D2 receptor (P14416 whole entry, species assumed): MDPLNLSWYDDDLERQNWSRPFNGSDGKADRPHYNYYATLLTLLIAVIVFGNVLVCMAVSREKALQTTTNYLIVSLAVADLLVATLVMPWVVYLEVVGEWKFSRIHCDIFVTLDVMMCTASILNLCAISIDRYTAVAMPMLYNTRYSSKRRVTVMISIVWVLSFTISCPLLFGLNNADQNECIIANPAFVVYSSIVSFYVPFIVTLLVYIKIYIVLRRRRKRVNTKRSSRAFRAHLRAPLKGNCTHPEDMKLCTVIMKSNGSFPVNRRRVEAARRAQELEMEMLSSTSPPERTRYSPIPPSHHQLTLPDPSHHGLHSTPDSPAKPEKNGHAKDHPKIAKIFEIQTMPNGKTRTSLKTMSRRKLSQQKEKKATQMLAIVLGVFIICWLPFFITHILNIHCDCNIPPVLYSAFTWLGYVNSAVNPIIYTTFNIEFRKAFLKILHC
Chain of 5-HT2 receptor (P28223 whole entry): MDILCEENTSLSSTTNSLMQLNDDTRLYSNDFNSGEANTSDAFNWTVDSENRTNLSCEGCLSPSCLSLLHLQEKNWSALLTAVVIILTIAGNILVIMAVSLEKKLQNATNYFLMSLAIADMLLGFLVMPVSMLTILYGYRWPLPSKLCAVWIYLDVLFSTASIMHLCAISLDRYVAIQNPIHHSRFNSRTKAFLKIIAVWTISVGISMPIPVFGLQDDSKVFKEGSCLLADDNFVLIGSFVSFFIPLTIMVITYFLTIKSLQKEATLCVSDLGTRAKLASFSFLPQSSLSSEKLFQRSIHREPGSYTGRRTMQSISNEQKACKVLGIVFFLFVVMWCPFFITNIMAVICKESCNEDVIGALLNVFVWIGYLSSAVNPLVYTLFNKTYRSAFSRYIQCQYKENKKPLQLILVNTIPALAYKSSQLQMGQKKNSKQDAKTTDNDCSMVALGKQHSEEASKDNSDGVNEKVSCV

SMILES: [Zn] [Zinc, zinc]
- increase in cytoplasmic Ca2+ (change in fluorescence ratio) (IB3-1 cells [1]; ECaT Ringer's, plate reader): long lasting increase in cytoplasmic Ca^2+

SMILES: O=C(O)c1ccc(/C=C2\SC(=S)N(c3cccc(C(F)(F)F)c3)C2=O)cc1 [CFTRinh-172]
- effect of channel blocker on spiperone-induced sustained Cl- release (Calu-3 cells [2]): totally blocked
- effect of channel blocker on spiperone-induced transient Cl- (Calu-3 cells [2]): reduced

SMILES: NCCOB(c1ccccc1)c1ccccc1 [2APB]
- effect on the spiperone induced Ca2+ release from ER (IB3-1 cells [3]; 100 μM, 30 minutes incubation, data not shown): totally blocked

SMILES: O=c1c(-c2ccc(O)cc2)coc2cc(O)cc(O)c12 [genistein]
- effect of preincubation on the spiperone-induced Ca2+ increase (IB3-1 cells [3]): partially blocked

SMILES: O=C(CCCN1CCC(O)(c2ccc(Cl)cc2)CC1)c1ccc(F)cc1 [haloperidol]
- spiperone Ca2+ response after prior addition of the analog (IB3-1 cells [3]; Ca2+-free normal Ringer's): spiperone was still able to stimulate a transient increase in Ca^2+
- increase of intracellular Ca2+ / Ca2+ release (IB3-1 cells [3]): did not release Ca^2+
- effect on spiperone-stimulated transepithelial Cl- currents (Calu-3 cells [2]; analog given before spiperone): did not prevent spiperone from stimulating transepithelial Cl^− currents
- Cl- current (short circuit current) (Calu-3 cells [2]): did not stimulate the Cl^− current

SMILES: O=C(O)c1cccnc1Nc1cccc(C(F)(F)F)c1 [NFA, niflumic acid]
- effect of channel blocker on spiperone-induced sustained Cl- release (Calu-3 cells [2]): totally blocked
- effect of channel blocker on spiperone-induced transient Cl- (Calu-3 cells [2]): reduced
- effect of CaCC blocker on spiperone's effect on Cl- secretion (CFBE41o- cells [4]): reduced significantly

SMILES: Nc1ccn([C@H]2C[C@H](O)[C@@H](COP(=O)(O)OP(=O)(O)OP(=O)(O)OP(=O)(O)OC[C@H]3O[C@@H](n4ccc(=O)[nH]c4=O)[C@H](O)[C@@H]3O)O2)c(=O)n1 [Denufosol, denufosol]
- improvement in lung function [5]: 2.5%

SMILES: O=C(c1ccc(F)cc1)C1CCN(CCn2c(=O)[nH]c3ccccc3c2=O)CC1 [ketanserin]
- spiperone Ca2+ response after prior addition of the analog (IB3-1 cells [3]; Ca2+-free normal Ringer's): spiperone was still able to stimulate a transient increase in Ca^2+
- increase of intracellular Ca2+ / Ca2+ release (IB3-1 cells [3]): did not increase intracellular Ca^2+
- affinity for the 5-HT2 receptor (5-HT2 receptor): high affinity
- antagonism of the dopamine receptor (dopamine D2 receptor): very weakly antagonistic
- effect on 5-HT effects (inhibited Na+ absorption, stimulated Cl- secretion) (5-HT receptor): blocked those effects

SMILES: Cc1ccc(C(=O)Nc2ccc(S(=O)(=O)O)c3cc(S(=O)(=O)O)cc(S(=O)(=O)O)c23)cc1NC(=O)c1cccc(NC(=O)Nc2cccc(C(=O)Nc3cc(C(=O)Nc4ccc(S(=O)(=O)O)c5cc(S(=O)(=O)O)cc(S(=O)(=O)O)c45)ccc3C)c2)c1 [Suramin, suramin]
- effect of preincubation on the spiperone-induced Ca2+ increase (IB3-1 cells [3]): did not reduce

SMILES: O=C(CCCN1CCC2(CC1)C(=O)NCN2c1ccccc1)c1ccc(F)cc1 [spiperone]
- change in cytoplasmic Ca2+ (IB3-1 cells [3]; Ca2+-free ECaT Ringer's): only a transient increase in cytoplasmic Ca^2+
- change in cytoplasmic Ca2+ (IB3-1 cells [3]; Ca2+-free normal Ringer's): only a transient increase in Ca^2+
- change in cytoplasmic Ca2+ (IB3-1 cells [3]; ECaT Ringer's): sustained increase in Ca^2+
- cytosolic Ca2+ response to thapsigargin after spiperone (IB3-1 cells [3]; cells treated with spiperone before thapsigargin, normal Ringers): no increase in cytosolic Ca^2+
- change in cytoplasmic Ca2+ (IB3-1 cells [3]; normal Ringer's): only a transient increase in Ca^2+
- change in Ca2+ (Calu-3 cells [6]): transient increase in Ca^2+
- change in Ca2+ (CFBE41o- cells [7]): transient increase in Ca^2+
- change in Ca2+ (NHBE): transient increase in Ca^2+
- Cl- secretion (Calu-3 cells [2]; 20 μM, monolayers): stimulated Cl^− secretion
- amount of spiperone required to induce Cl- secretion (Calu-3 cells [2]; "our study", airway epithelial cells): at least 1 μmol
- Cl- current (short circuit current) (Calu-3 cells [2]): a transient and then a sustained Cl^− current
- Cl- secretion (CFBE41o- cells [4]; 20 μM, monolayers): stimulated Cl^− secretion
- Cl- secretion (short circuit current) (CFBE41o- cells [4]): only a transient Cl^− secretion
- Cl- transit on spiperone applied after thapsigargin (CFBE41o- cells [4]; subsequent to thapsigargin): failed to stimulate any additional Cl^− transit
- affinity for the 5-HT2 receptor (5-HT2 receptor): high affinity
- affinity for the dopamine D2 receptor (dopamine D2 receptor; antagonists): high affinity
- nasal potential difference / Cl- conductance [8]: did not induce any further hyperpolarization
- nasal potential difference / Cl- conductance ([9]; 1 μM in Zero Cl- baseline Ringer's, after amiloride, nasal perfusion): hyperpolarized the mouse nasal potential significantly
- nasal potential difference ([9]; 1 μM, after 19 min of sustained perfusion): remained significantly hyperpolarized
- nasal potential difference / Cl- conductance ([9]; subsequent increase to 20 μM): did not boost Cl^− conductance
- spiperone concentrations at which the Ca2+ stimulation is reduced (IB3-1 cells [1]; higher concentrations, inhibition): > 50 µM
- spiperone concentrations that stimulate cytoplasmic Ca2+ (IB3-1 cells [1]; lower concentrations, activation): less than 50 μM

SMILES: COc1ccc2c(c1)CC[C@@H]1[C@@H]2CC[C@]2(C)[C@@H](NCCCCCCN3C(=O)C=CC3=O)CC[C@@H]12 [U73122]
- effect of preincubation on the spiperone-induced Ca2+ increase (IB3-1 cells [3]): diminished

SMILES: COc1ccc2c(c1)CC[C@@H]1[C@@H]2CC[C@]2(C)C(NCCCCCCN3C(=O)CCC3=O)CC[C@@H]12 (stereo partly shown) [U73433]
- effect of preincubation on the spiperone-induced Ca2+ increase (IB3-1 cells [3]): did not

SMILES: O=C(O)c1cc(N(Cc2ccccc2O)Cc2cc(O)ccc2O)ccc1O [lavendustin A]
- effect on the increase in Ca2+ induced by spiperone (IB3-1 cells [3]; 10 μM, data not shown): significantly diminished

SMILES: C/C=C(/C)C(=O)O[C@H]1C(C)=C2[C@H]([C@@H]1OC(=O)CCCCCCC)[C@@](C)(OC(C)=O)C[C@H](OC(=O)CCC)[C@@]1(O)[C@H]2OC(=O)[C@@]1(C)O [thapsigargin]
- change in cytoplasmic Ca2+ (IB3-1 cells [3]; normal Ringer's): net increase in Ca^2+ in the cytosol
- Cl- secretion (short circuit current) (CFBE41o- cells [4]): transient increase in Cl^− secretion

— patent US8664237B2 (The Johns Hopkins University, priority 2008, dated 2014)
